13 molecules from publication PMC10584170, “Machine learning-based phenotypic imaging to characterise the targetable biology of Plasmodium falciparum male gametocytes for the development of transmission-blocking antimalarials” (PLOS Pathogens, 2023) can be followed below.

Assay [1] concerns P. falciparum male gametocytes. Briefly: P. falciparum Dual Gamete Formation Assay (PfDGFA), male readout (exflagellation). The note with it: for Average inhibition male (%): average of replicates; for % inhibition male (individual replicates) R1: replicate R1; for % inhibition male (individual replicates) R3: replicate R3; for % inhibition male (individual replicates) R4: replicate R4; for Activity: hit = >50% inhibition in male or female readout in at least 3 replicates, 0 = no class assigned. It counts as cell-based, Plasmodium falciparum NF54. Put shortly:
(§1)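 Mature NF54 gametocytes (day 14) were incubated with compound for 24 h at 37°C under 1% O2/3% CO2, then triggered with xanthurenic acid ookinete medium plus Cy3-anti-Pfs25. Exflagellation was imaged by brightfield; after a further 24 h at 28°C, Pfs25-positive female gametes were imaged by fluorescence and counted by automated image analysis.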

Assay [2] relates to P. falciparum female gametocytes. Briefly: P. falciparum Dual Gamete Formation Assay (PfDGFA), female readout (Pfs25-positive female gametes). It counts as cell-based, Plasmodium falciparum NF54. The note with it: for Average inhibition female (%): average of replicates; for % inhibition female (individual replicates) R1: replicate R1; for % inhibition female (individual replicates) R3: replicate R3; for % inhibition female (individual replicates) R4: replicate R4. Put shortly: as §1

[3] abbreviates: 2µM, 24h preincubation with gametocytes prior to induction of gametogenesis.
Where [4] appears, read: 2µM, 24h preincubation, number of replicates with >50% inhibition in the male readout.
Setting [5] is: 2µM, 24h preincubation, number of replicates with >50% inhibition in the female readout.
[6] abbreviates: PfDGFA at 2µM, 24h preincubation with gametocytes prior to induction of gametogenesis.
Where [7] appears, read: PfDGFA at 2µM, 24h preincubation.
Where [8] appears, read: 2µM, 24h preincubation, hits selected on >50% inhibition in the male readout across replicates.
The mark [9] stands for this setting: 2µM, 24h preincubation, hits selected on >50% inhibition in the female readout across replicates.

Turning to `CN(CCc1ccccc1)c1ncc(-c2cccc(CNCCC3CCCN3C)c2)cn1` (stereo not drawn) [TCMDC-133143], in assay [1] (setting [3]), the “Average inhibition male (%)” value amounted to 57.0%, the “% inhibition male (individual replicates) R1” value was 66.7%, the “% inhibition male (individual replicates) R3” value came out at 31.4% and the “% inhibition male (individual replicates) R4” value came to 52.9%. In addition, the HitlevelM in assay [1] (setting [4]) is on record as 3. Besides, in assay [2] (setting [3]), the “Average inhibition female (%)” value was determined as 35.0%, the “% inhibition female (individual replicates) R1” value is recorded as 22.5%, the “% inhibition female (individual replicates) R3” value was 13.4% and the “% inhibition female (individual replicates) R4” value was found to be 55.4%. Besides, the HitlevelF in assay [2] (setting [5]) turned out to be 1.
Turning to `CN1CCCC1CCNCc1cccc(-c2cnc(N3CCCC(C)(C)C3)nc2)c1` (stereo not drawn) [TCMDC-133144], in assay [1] (setting [3]), the “Average inhibition male (%)” value is given as 57.1%, the “% inhibition male (individual replicates) R1” value came out at 64.8%, the “% inhibition male (individual replicates) R3” value is listed as 37.3% and the “% inhibition male (individual replicates) R4” value came out at 70.2%. In addition, in assay [1] (setting [4]), the HitlevelM amounted to 3. Also, in assay [2] (setting [3]), the “Average inhibition female (%)” value stood at 21.7%, the “% inhibition female (individual replicates) R1” value is reported as 23.0%, the “% inhibition female (individual replicates) R3” value is 21.4% and the “% inhibition female (individual replicates) R4” value was 13.1%. This molecule returned a HitlevelF in assay [2] (setting [5]) of 0.
Take `O=C(Nc1ccsc1)Nc1cccc(-c2ccc(-c3nc4cc(C(F)(F)F)ccc4[nH]3)cc2)c1` [TCMDC-133210]: in assay [1] (setting [6]), the “% inhibition male (individual replicates) R1” value is listed as -6.9%, the “% inhibition male (individual replicates) R3” value is recorded as -21.6% and the “% inhibition male (individual replicates) R4” value stood at 0.9%. Moreover, the “Average inhibition male (%)” value in assay [1] (setting [7]) was -14.6%. Further, in assay [2] (setting [6]), the “% inhibition female (individual replicates) R1” value was 5.3%, the “% inhibition female (individual replicates) R3” value is recorded as -25.6% and the “% inhibition female (individual replicates) R4” value was -2.5%. In assay [2] (setting [7]), the “Average inhibition female (%)” value is -7.9%.
Consider `CCCCCN1CCCC1CNS(=O)(=O)c1cccc(C(=O)Nc2cccc(C#N)c2)c1.O=C(O)C(F)(F)F` (stereo not drawn) [TCMDC-133690], for which, in assay [1] (setting [6]), the “% inhibition male (individual replicates) R1” value is recorded as -0.3% and the “% inhibition male (individual replicates) R4” value was 15.0%. For the same molecule, the “Average inhibition male (%)” value in assay [1] (setting [7]) was determined as 7.9%. For the same molecule, in assay [2] (setting [6]), the “% inhibition female (individual replicates) R1” value was 2.9%, the “% inhibition female (individual replicates) R3” value is -5.0% and the “% inhibition female (individual replicates) R4” value is 6.8%. In addition, the “Average inhibition female (%)” value in assay [2] (setting [7]) was -0.08%.
Turning to `Cl.NCc1ccc(-c2ccc3c(N)nccc3c2)cc1` [TCMDC-133718], in assay [1] (setting [3]), the “Average inhibition male (%)” value is reported as 18.4%, the “% inhibition male (individual replicates) R1” value was -0.6%, the “% inhibition male (individual replicates) R3” value is -25.8% and the “% inhibition male (individual replicates) R4” value was 49.6%. The molecule further gave a HitlevelM in assay [1] (setting [4]) of 1. Moreover, in assay [2] (setting [3]), the “Average inhibition female (%)” value is 21.1%, the “% inhibition female (individual replicates) R1” value is listed as 11.2%, the “% inhibition female (individual replicates) R3” value is given as 8.8% and the “% inhibition female (individual replicates) R4” value is on record as 10.1%. The molecule further gave a HitlevelF in assay [2] (setting [5]) of 1.
Regarding `Cc1cccc(-c2cccc(CNc3nc(NCCc4ccc(O)cc4)nc(N4CCNCC4)n3)c2)c1.O=C(O)C(F)(F)F` [TCMDC-133810], in assay [1] (setting [3]), the “Average inhibition male (%)” value is reported as -4.6%, the “% inhibition male (individual replicates) R1” value is on record as -4.0%, the “% inhibition male (individual replicates) R3” value is -16.3% and the “% inhibition male (individual replicates) R4” value was 16.2%. The molecule also came in with a HitlevelM in assay [1] (setting [8]) of 0. For the same molecule, the Activity in assay [1] (setting [7]) worked out at 0. Besides, in assay [2] (setting [3]), the “Average inhibition female (%)” value was 7.6%, the “% inhibition female (individual replicates) R1” value is 16.4%, the “% inhibition female (individual replicates) R3” value was -13.0% and the “% inhibition female (individual replicates) R4” value is on record as 18.6%. The HitlevelF in assay [2] (setting [9]) is recorded as 0.
Turning to `CN1CCC(N2CCN(Cc3cccc(-c4ccc(-c5nc6cc(F)ccc6[nH]5)cc4)c3)CC2)CC1.O=C(O)C(F)(F)F` [TCMDC-133858], in assay [1] (setting [3]), the “Average inhibition male (%)” value worked out at 26.9%, the “% inhibition male (individual replicates) R1” value stood at 35.0%, the “% inhibition male (individual replicates) R3” value is -5.5% and the “% inhibition male (individual replicates) R4” value is listed as 46.2%. The molecule also registered a HitlevelM in assay [1] (setting [8]) of 0. Further, in assay [1] (setting [7]), the Activity was found to be 0. In addition, in assay [2] (setting [3]), the “Average inhibition female (%)” value was 6.0%, the “% inhibition female (individual replicates) R1” value is reported as 1.0%, the “% inhibition female (individual replicates) R3” value is -3.8% and the “% inhibition female (individual replicates) R4” value came to 20.5%. This molecule also had a HitlevelF in assay [2] (setting [9]) of 0.
In the case of `Cc1cccc2nc(-c3ccc(-c4ccc(CN5CCC(N)C5)cc4)s3)[nH]c12.O=C(O)C(F)(F)F` (stereo not drawn) [TCMDC-133862], in assay [1] (setting [3]), the “Average inhibition male (%)” value is on record as -1.0%, the “% inhibition male (individual replicates) R1” value was -13.8% and the “% inhibition male (individual replicates) R4” value was found to be 7.3%. This molecule also came in with a HitlevelM in assay [1] (setting [8]) of 0. In assay [1] (setting [7]), this molecule came in with an Activity of 0. Also, in assay [2] (setting [3]), the “Average inhibition female (%)” value is listed as 4.0%, the “% inhibition female (individual replicates) R1” value is 5.8%, the “% inhibition female (individual replicates) R3” value is on record as 5.7% and the “% inhibition female (individual replicates) R4” value turned out to be 2.9%. The molecule further gave a HitlevelF in assay [2] (setting [9]) of 0.
As to `Cc1cccc2nc(-c3ccc(-c4ccc(CN5CCN(C6CCN(C)CC6)CC5)cc4)s3)[nH]c12.O=C(O)C(F)(F)F` [TCMDC-133866], in assay [1] (setting [3]), the “Average inhibition male (%)” value is recorded as 12.4%, the “% inhibition male (individual replicates) R1” value came out at 12.8%, the “% inhibition male (individual replicates) R3” value was determined as 24.6% and the “% inhibition male (individual replicates) R4” value amounted to 21.2%. This molecule showed a HitlevelM in assay [1] (setting [4]) of 0. In assay [2] (setting [3]), the “Average inhibition female (%)” value came out at 32.5%, the “% inhibition female (individual replicates) R1” value came to 26.9%, the “% inhibition female (individual replicates) R3” value stood at 41.8% and the “% inhibition female (individual replicates) R4” value was 27.5%. Also, the HitlevelF in assay [2] (setting [5]) turned out to be 0.
On to `NC1CCN(Cc2ccc(-c3ccc(-c4nc5ccccc5[nH]4)cc3)cc2)C1.O=C(O)C(F)(F)F` (stereo not drawn) [TCMDC-133868], for which, in assay [1] (setting [3]), the “Average inhibition male (%)” value is given as 53.2%, the “% inhibition male (individual replicates) R1” value is listed as 65.7%, the “% inhibition male (individual replicates) R3” value is listed as 18.3% and the “% inhibition male (individual replicates) R4” value was found to be 71.6%. In assay [1] (setting [4]), the HitlevelM came out at 3. In assay [2] (setting [3]), the “Average inhibition female (%)” value is listed as 15.3%, the “% inhibition female (individual replicates) R1” value turned out to be 0.6%, the “% inhibition female (individual replicates) R3” value is -10.8% and the “% inhibition female (individual replicates) R4” value worked out at 34.5%. The molecule also gave a HitlevelF in assay [2] (setting [5]) of 0.
In the case of `NC1CCN(Cc2ccc(-c3ccc(-c4nc5cc(F)ccc5[nH]4)cc3)cc2)C1.O=C(O)C(F)(F)F` (stereo not drawn) [TCMDC-133872], in assay [1] (setting [3]), the “Average inhibition male (%)” value was determined as 30.9%, the “% inhibition male (individual replicates) R1” value was determined as 32.1%, the “% inhibition male (individual replicates) R3” value is listed as 18.9% and the “% inhibition male (individual replicates) R4” value is listed as 53.6%. In assay [1] (setting [8]), this molecule registered a HitlevelM of 1. Moreover, the Activity in assay [1] (setting [7]) came to 0. In addition, in assay [2] (setting [3]), the “Average inhibition female (%)” value was determined as 9.7%, the “% inhibition female (individual replicates) R1” value was 21.7%, the “% inhibition female (individual replicates) R3” value is on record as 5.5% and the “% inhibition female (individual replicates) R4” value is recorded as 3.9%. In assay [2] (setting [9]), this molecule registered a HitlevelF of 0.
As for `O=C(O)C(F)(F)F.c1cc(-c2ccc(CN3CCCCC3)cc2)cc(-c2nc3ccccc3[nH]2)c1` [TCMDC-133917], in assay [1] (setting [3]), the “Average inhibition male (%)” value came out at 9.6%, the “% inhibition male (individual replicates) R1” value was 7.6%, the “% inhibition male (individual replicates) R3” value is given as 11.1% and the “% inhibition male (individual replicates) R4” value is recorded as 9.5%. The HitlevelM in assay [1] (setting [8]) is 0. This molecule gave an Activity in assay [1] (setting [7]) of 0. Besides, in assay [2] (setting [3]), the “Average inhibition female (%)” value is 7.0%, the “% inhibition female (individual replicates) R1” value was 8.8%, the “% inhibition female (individual replicates) R3” value was -3.2% and the “% inhibition female (individual replicates) R4” value is 28.3%. Besides, the HitlevelF in assay [2] (setting [9]) is listed as 0.
Consider `Cc1cccc2nc(-c3ccc(-c4cccc(CN5CCC(CCN6CCCCC6)CC5)c4)s3)[nH]c12.O=C(O)C(F)(F)F` [TCMDC-133923], for which, in assay [1] (setting [3]), the “Average inhibition male (%)” value worked out at 52.7%, the “% inhibition male (individual replicates) R1” value stood at 48.5%, the “% inhibition male (individual replicates) R3” value stood at 59.9% and the “% inhibition male (individual replicates) R4” value is on record as 89.6%. Also, the HitlevelM in assay [1] (setting [4]) is reported as 2. Also, in assay [2] (setting [3]), the “Average inhibition female (%)” value was found to be 32.1%, the “% inhibition female (individual replicates) R1” value worked out at 30.9%, the “% inhibition female (individual replicates) R3” value is listed as 27.4% and the “% inhibition female (individual replicates) R4” value was found to be 27.6%. Further, the HitlevelF in assay [2] (setting [5]) is on record as 0.
